SMILES strings stand for the structures. Where a name gives a salt, the structure may show the parent alone. Read-outs that look alike come from different tables or passages of the source.

The values that follow come from patent US10112926B2 (priority 2014, dated 2018).

In one test the target is PI 3-kinase alpha (Homo sapiens (Human), UniProt P42336). The note with it: read-out: Assay A PI3Kα IC50.
The target in another test is PI 3-kinase beta (Homo sapiens (Human), UniProt P42338). The note with it: read-out: Assay B PI3Kβ IC50.
Chain of PI 3-kinase beta (P42338 whole entry, looked up): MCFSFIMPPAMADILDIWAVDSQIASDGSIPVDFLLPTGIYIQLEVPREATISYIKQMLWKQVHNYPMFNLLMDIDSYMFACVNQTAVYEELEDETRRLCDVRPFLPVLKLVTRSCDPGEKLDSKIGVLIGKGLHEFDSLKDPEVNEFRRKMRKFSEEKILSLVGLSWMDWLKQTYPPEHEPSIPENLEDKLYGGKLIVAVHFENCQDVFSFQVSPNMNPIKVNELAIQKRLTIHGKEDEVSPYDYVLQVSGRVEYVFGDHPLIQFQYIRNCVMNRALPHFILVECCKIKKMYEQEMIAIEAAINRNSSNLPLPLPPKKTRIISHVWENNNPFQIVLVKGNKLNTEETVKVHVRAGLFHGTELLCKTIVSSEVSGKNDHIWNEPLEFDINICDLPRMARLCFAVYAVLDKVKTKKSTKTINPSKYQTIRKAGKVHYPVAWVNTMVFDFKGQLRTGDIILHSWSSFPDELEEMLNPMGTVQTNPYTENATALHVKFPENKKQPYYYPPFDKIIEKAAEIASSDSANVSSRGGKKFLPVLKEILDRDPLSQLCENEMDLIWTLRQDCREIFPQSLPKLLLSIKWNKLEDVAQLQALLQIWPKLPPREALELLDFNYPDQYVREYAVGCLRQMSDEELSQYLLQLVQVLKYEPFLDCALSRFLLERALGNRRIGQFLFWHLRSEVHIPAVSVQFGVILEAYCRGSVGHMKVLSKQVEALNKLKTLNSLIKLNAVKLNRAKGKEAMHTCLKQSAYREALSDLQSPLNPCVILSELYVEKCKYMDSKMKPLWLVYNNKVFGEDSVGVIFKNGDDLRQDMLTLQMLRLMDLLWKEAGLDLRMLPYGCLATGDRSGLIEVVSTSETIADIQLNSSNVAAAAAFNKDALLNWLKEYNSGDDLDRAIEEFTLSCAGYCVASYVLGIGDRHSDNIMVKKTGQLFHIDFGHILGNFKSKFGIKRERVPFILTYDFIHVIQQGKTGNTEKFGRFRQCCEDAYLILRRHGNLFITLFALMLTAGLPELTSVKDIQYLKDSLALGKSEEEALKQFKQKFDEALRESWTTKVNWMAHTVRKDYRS
Chain of PI 3-kinase beta (P27986 whole entry partner, looked up): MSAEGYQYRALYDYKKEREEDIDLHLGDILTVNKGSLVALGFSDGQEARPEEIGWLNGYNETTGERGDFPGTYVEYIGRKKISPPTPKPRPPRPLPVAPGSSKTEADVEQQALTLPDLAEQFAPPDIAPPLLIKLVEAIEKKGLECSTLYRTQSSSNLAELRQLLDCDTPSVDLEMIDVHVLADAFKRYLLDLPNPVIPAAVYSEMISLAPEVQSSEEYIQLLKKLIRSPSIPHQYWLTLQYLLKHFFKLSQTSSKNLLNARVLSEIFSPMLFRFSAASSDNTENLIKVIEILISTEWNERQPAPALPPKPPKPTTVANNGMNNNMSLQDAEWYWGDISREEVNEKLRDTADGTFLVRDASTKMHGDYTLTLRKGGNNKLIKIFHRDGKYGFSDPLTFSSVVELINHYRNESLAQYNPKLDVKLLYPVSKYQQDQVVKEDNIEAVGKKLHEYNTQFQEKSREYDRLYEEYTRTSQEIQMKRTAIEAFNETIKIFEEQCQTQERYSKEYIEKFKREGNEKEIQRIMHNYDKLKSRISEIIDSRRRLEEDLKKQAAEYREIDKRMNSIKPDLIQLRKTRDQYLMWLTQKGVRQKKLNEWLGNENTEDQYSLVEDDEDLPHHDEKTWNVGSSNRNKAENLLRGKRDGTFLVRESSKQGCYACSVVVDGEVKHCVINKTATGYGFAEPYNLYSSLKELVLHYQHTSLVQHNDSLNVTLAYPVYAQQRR
For another test, the target named is Vps34 (Homo sapiens (Human), UniProt Q8NEB9). The note with it: read-out: Assay C VPS34 IC50.
Chain of Vps34 (Q8NEB9 whole entry): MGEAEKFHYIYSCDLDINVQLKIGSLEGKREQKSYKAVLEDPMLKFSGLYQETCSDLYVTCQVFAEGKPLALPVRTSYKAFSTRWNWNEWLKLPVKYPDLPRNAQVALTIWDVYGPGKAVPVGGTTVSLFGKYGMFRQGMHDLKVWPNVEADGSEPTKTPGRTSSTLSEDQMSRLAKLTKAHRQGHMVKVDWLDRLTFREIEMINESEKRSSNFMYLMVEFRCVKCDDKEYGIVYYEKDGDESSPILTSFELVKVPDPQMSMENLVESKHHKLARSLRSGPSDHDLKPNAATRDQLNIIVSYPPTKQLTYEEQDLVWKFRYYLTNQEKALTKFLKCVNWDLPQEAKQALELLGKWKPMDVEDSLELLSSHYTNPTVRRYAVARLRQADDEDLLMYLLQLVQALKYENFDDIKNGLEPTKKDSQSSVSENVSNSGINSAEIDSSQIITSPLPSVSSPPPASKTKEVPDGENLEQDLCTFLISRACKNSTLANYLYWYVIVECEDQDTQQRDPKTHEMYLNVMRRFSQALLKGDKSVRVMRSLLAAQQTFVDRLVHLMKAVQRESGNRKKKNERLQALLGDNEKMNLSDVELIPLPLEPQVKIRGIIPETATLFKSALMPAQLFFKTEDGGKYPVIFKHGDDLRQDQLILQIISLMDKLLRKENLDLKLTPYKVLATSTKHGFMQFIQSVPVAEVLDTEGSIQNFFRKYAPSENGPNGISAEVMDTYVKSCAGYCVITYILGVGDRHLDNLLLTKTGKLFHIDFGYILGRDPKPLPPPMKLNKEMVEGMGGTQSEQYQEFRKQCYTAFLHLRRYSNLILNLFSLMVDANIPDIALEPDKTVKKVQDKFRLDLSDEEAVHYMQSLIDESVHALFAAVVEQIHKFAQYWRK
Another test has as its target PI 4-kinase beta (Homo sapiens (Human), UniProt Q9UBF8). The note with it: read-out: Assay D PI4Kβ IC50.
A further test concerns the target PI 3-kinase delta (Homo sapiens (Human), UniProt O00329). The note with it: read-out: Assay F PI3Kδ IC50.
In the next test the target is PI 3-kinase gamma (Homo sapiens (Human), UniProt P48736).
A further test has as its target mTOR (Homo sapiens (Human), UniProt P42345). The conditions noted are these: read-out: Assay G mTOR IC50.
Test [1] addresses PI 3-kinase gamma (U937 cells, MIP1α-stimulated AKT phosphorylation) (Homo sapiens (Human), UniProt P48736). The note with it: read-out: Assay K2 PI3Kγ IC50.
In test [2] the target is T1, PI 3-kinase beta (Rat-1 pBABEpuro Myr-HA-hp110 beta cells) (Homo sapiens (Human), UniProt P42338). Put plainly: cell-based. The note with it: Assay I PI3Kβ IC50.
Excerpt: (§1) Cellular Assays for PI 3-Kinase Alpha (H1), Beta (I1) and Delta (J1): Surefire Format
(§2) The brand name SureFire denotes AlphaScreen assays that are adapted to quantify the phosphorylation of endogenous cellular proteins in cell lysates, by using matched antibody pairs, which consist of an anti-phospho-kinase and an anti-kinase antibody. The assay allows characterization of kinase signaling in cells as well as measurement of kinase inhibitor effects.
(§3) The p-Akt (S473) SureFire assay measures the phosphorylation of endogenous cellular Akt 1/2 at Ser473 in cell lysates. Using Rat-1 cells stably expressing myr-HA-tagged versions of the human PI3Kdelta, PI3Kalpha, or PI3Kbeta p110 catalytic subunit isoforms, the assay was developed as a two-plate protocol in a 384-well format.
(§4) For compound testing, the cells were seeded at a density of 4000 (Rat-1_PI3Kdelta), 7500 (Rat-1_PI3Kalpha), or 6200 (Rat-1_PI3Kbeta) cells in 20 μl complete growth medium into cell culture treated 384-well plates and were grown at 37° C./5% CO2/90% humidity for 24 h. Shortly before compound transfer, the complete medium was removed, 30 μl assay buffer (DMEM high glucose, 1×MEM NEAA, 10 mM HEPES, 2 mM L-glutamine, 0.1% (w/v) BSA) was added and 10 μl of the compound predilutions were transferred to the cells. […]
In test [3] the target is T2, PI 3-kinase alpha (Rat-1 pBABEpuro Myr-HA-hp110 alpha cells) (Homo sapiens (Human), UniProt P42336). Put plainly: cell-based. The note with it: Assay H PI3Kα IC50.
Excerpt: as §1, §2, §3, §4
Test [4] concerns the target T1, PI 3-kinase beta (Rat-1 pBABEpuro Myr-HA-hp110 beta cells). Put plainly: cell-based.
Description: (§5) Cellular Assays for PI 3-Kinase Alpha (H2), Beta (I2) and Delta (J2): HTRF (Homogeneous Time Resolved Fluorescence) Format
(§6) All cell lines were cultivated in complete growth medium (DMEM high glucose GlutaMAX™ Pyruvate, 10% (v/v) fetal bovine serum, 0.1 mM MEM NEAA, 25 mM HEPES, puromycin 10 μg/mL, 100 U/ml Penicillin, 100 μg/ml Streptomycin) to 90% confluency at 37° C./5% CO2/90% humidity in a humidified CO2 incubator and were split twice a week.
(§7) Semi-automated preparation of cell lysates: For low (inhibited) controls, 0.9 mM NVP-BGT226-AF-1 in 90% (v/v) DMSO was added to the compound master plate. For compound testing, the cells were seeded at a density of 4000 (Rat-1_PI3Kdelta), 8000 (Rat-1_PI3Kalpha), or 6500 (Rat-1_PI3Kbeta) cells in 30 μl complete growth medium into cell culture treated 384-well plates and were grown at 37° C./5% CO2/90% humidity for 24 h. 10 μl of the compound predilutions were transferred to the cells. After treatment with compound for 1 h, medium was removed and cells were lysed by the addition of 20 μl lysis buffer supplemented with blocking buffer. Detection of p-AKT(Ser473) was performed with the HTRF pAKT (Ser473) assay kit according to the manufacturer's instructions using 16 μl of cell lysate in a total detection volume of 20 μl.
Test [5] deals with T2, PI 3-kinase alpha (Rat-1 pBABEpuro Myr-HA-hp110 alpha cells). Put plainly: cell-based.
Description: as §5, §6, §7

Chain of PI 3-kinase alpha (P42336 whole entry, looked up): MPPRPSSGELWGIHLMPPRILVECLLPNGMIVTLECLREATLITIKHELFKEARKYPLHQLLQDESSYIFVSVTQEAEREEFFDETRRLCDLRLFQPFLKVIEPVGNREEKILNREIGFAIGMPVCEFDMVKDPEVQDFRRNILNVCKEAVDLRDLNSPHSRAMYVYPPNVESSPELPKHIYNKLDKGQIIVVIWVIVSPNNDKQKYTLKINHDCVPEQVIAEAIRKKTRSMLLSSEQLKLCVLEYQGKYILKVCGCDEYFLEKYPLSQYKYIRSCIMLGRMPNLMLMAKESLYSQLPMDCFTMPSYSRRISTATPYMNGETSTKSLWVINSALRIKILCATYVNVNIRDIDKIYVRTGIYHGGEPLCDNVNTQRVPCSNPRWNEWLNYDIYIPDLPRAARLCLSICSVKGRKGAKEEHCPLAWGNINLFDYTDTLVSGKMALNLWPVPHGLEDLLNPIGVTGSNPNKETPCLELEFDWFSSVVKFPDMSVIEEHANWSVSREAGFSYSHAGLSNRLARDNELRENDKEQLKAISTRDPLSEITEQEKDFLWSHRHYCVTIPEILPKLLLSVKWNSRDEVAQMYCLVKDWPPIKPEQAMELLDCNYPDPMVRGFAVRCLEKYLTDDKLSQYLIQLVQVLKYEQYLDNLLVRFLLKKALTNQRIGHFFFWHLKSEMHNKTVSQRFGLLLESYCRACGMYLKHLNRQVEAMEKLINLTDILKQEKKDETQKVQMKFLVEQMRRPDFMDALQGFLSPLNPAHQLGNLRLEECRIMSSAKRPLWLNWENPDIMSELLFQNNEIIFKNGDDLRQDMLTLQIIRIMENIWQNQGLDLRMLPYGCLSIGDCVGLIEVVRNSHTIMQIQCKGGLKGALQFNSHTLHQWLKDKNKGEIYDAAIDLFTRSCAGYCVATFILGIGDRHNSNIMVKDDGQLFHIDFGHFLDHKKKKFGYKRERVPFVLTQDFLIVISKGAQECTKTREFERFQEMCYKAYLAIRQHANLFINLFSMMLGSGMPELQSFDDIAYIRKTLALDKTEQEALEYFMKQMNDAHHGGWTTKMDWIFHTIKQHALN
Chain of PI 3-kinase alpha (P27986 whole entry partner, looked up): as the sequence (P27986 whole entry partner, looked up) above
Chain of PI 4-kinase beta (Q9UBF8 whole entry): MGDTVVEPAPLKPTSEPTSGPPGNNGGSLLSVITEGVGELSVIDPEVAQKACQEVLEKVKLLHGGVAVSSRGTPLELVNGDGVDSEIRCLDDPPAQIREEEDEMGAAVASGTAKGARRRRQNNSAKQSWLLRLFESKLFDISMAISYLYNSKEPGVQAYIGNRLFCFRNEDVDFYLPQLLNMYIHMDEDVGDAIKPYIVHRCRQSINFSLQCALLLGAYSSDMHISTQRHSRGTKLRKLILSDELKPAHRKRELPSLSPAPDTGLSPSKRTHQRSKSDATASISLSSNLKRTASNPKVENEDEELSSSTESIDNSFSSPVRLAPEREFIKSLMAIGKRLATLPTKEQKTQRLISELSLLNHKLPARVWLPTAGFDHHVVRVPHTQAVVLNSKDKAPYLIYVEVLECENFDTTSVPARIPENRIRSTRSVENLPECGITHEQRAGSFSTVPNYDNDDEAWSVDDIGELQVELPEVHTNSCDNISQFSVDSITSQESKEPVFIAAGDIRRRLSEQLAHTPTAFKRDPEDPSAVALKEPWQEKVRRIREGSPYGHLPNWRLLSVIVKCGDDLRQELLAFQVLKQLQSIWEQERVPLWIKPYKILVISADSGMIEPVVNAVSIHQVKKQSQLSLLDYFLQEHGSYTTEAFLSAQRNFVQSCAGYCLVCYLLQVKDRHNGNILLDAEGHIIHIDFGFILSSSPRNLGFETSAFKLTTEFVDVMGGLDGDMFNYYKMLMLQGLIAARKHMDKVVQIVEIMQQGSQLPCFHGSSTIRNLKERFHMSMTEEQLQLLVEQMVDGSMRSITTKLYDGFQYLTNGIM

A word on the IC50: it is the midpoint of a concentration-inhibition curve. Consider `Cc1ncc(-c2cc(-c3cc(S(=O)(=O)NCC4(O)COC4)ccc3C)cnc2N)s1` [Example 83.3, 3-(6-amino-5-(2-methylthiazol-5-yl)pyridin-3-yl)-N-((3-hydroxyoxetan-3-yl)methyl)-4-methylbenzenesulfonamide], for which the IC50 at PI 3-kinase alpha was 0.57 µM; at PI 3-kinase beta, 3 µM; at Vps34 it was 9.7 µM; at PI 4-kinase beta, 1.7 µM; on PI 3-kinase delta it was 0.9 µM.

On to `Cc1cc(-c2cnc(N)c(-c3nc(C)no3)c2)cc(S(=O)(=O)NCC(C)(C)O)c1` [3-(6-amino-5-(3-methyl-1,2,4-oxadiazol-5-yl)pyridin-3-yl)-N-(2-hydroxy-2-methylpropyl)-5-methylbenzenesulfonamide], for which, at PI 3-kinase gamma, the “activity in assay E” value is “inactive”.

Turning to `Cc1cc(-c2cc(-c3cc(S(=O)(=O)NCC4(O)CCC4)ccc3C)cnc2N)on1` [Example 37.35, 3-(6-Amino-5-(3-methylisoxazol-5-yl)pyridin-3-yl)-N-((1-hydroxycyclobutyl)methyl)-4-methylbenzenesulfonamide], the IC50 at Vps34 is greater than 10 µM; at mTOR it was greater than 10 µM; in test [1], 0.101 µM.

`Cc1ccc(S(=O)(=O)N[C@H]2CC[C@H](O)CC2)cc1-c1cnc(N)c(-c2nc(CC(F)(F)F)no2)c1` [Example 78, trans-3-(6-Amino-5-(3-(2,2,2-trifluoroethyl)-1,2,4-oxadiazol-5-yl)pyridin-3-yl)-N-((1r,4r)-4-hydroxycyclohexyl)-4-methylbenzenesulfonamide]: the IC50 on PI 3-kinase beta is 2.5 µM; at Vps34, greater than 10 µM; at PI 4-kinase beta, 0.49 µM; in test [2], greater than 10 µM.

As to `Cc1noc(-c2cc(-c3cc(S(=O)(=O)NCC(C)(C)O)c(C)cc3C)cnc2N)n1` [Example 100], the IC50 was 0.26 µM at PI 3-kinase alpha; 2.25 µM at PI 3-kinase beta; greater than 10 µM at Vps34; 4.25 µM at PI 4-kinase beta; 4.14 µM in [3]; greater than 10 µM in [2].

As for `Cc1noc(-c2cc(-c3cc(S(=O)(=O)NCC(C)(C)O)ccc3C(F)(F)F)cnc2N)n1` [3-(6-amino-5-(3-methyl-1,2,4-oxadiazol-5-yl)pyridin-3-yl)-N-(2-hydroxy-2-methylpropyl)-4-(trifluoromethyl)benzenesulfonamide], the “activity in assay E” value at PI 3-kinase gamma was “inactive”.

Consider `Cc1noc(-c2cc(-c3cc(S(=O)(=O)N[C@@H]4CCNC(=O)C4)ccc3C)cnc2N)n1` [Example 37.25, (R)-3-(6-Amino-5-(3-methyl-1,2,4-oxadiazol-5-yl)pyridin-3-yl)-4-methyl-N-(2-oxopiperidin-4-yl)benzenesulfonamide], for which the IC50 on PI 3-kinase alpha was 3.8 µM; at PI 3-kinase beta it was greater than 10 µM; at Vps34, greater than 10 µM; on PI 4-kinase beta, greater than 10 µM; at mTOR, greater than 10 µM.

With `Cc1nnc(-c2cc(-c3cc(S(=O)(=O)NCCC(C)(C)O)ccc3C)cnc2N)o1` [Example 5.6, 3-(6-Amino-5-(5-methyl-1,3,4-oxa-diazol-2-yl)pyridin-3-yl)-N-(3-hydroxy-3-methylbutyl)-4-methylbenzenesulfon-amide], the IC50 was 0.7 µM at PI 3-kinase alpha; 4.5 µM at PI 3-kinase beta; greater than 10 µM at Vps34; 7.8 µM at PI 4-kinase beta; greater than 10 µM at mTOR.

Take `Cc1ncc(-c2cc(-c3cc(S(=O)(=O)N4CC(CO)C4)ccc3C)cnc2N)s1` [Example 83.1, (1-((3-(6-Amino-5-(2-methylthiazol-5-yl)pyridin-3-yl)-4-methylphenyl)sulfonyl)azetidin-3-yl)methanol]: the IC50 was 0.4 µM at PI 3-kinase alpha, 2.5 µM on PI 3-kinase beta and 1.3 µM at PI 3-kinase delta.

With `Cc1cc(-c2cc(-c3cc(S(=O)(=O)N4C[C@H](C)[C@@H](O)C4)ccc3C)cnc2N)on1` (relative stereo) [Example 101.3, trans-1-((3-(6-amino-5-(3-methylisoxazol-5-yl)pyridin-3-yl)-4-methylphenyl)sulfonyl)-4-methylpyrrolidin-3-ol], the IC50 is 5.1 µM at PI 3-kinase beta, greater than 10 µM on Vps34, 3.6 µM on PI 4-kinase beta and greater than 10 µM in test [4].

On to `Cc1ccc(S(=O)(=O)NC2CC3(CC(O)C3)C2)cc1-c1cnc(N)c(-c2cn(C)nc2C)c1` (stereo not drawn) [Example 26, 3-(6-Amino-5-(1,3-dimethyl-1H-pyrazol-4-yl)pyridin-3-yl)-N-(6-hydroxyspiro[3.3]heptan-2-yl)-4-methylbenzenesulfonamide], for which the IC50 on PI 3-kinase alpha was 0.22 µM; at PI 3-kinase beta it was 3 µM; at Vps34 it was greater than 10 µM; on PI 4-kinase beta, 3.4 µM; on mTOR, 0.32 µM.

Take `Cc1cccc(NS(=O)(=O)c2ccc(C)c(-c3cnc(N)c(-c4cnn(C)c4)c3)c2)n1` [Example 30, 3-(6-Amino-5-(1-methyl-1H-pyrazol-4-yl)pyridin-3-yl)-4-methyl-N-(6-methylpyridin-2-yl)benzenesulfonamide]: the IC50 was 0.33 µM on PI 3-kinase alpha; 1.5 µM at PI 3-kinase beta; greater than 10 µM at Vps34; 3.1 µM at PI 4-kinase beta; 4.7 µM at mTOR.

As for `Cc1noc(-c2cc(-c3cc(C(F)(F)F)cc(S(=O)(=O)NCC(C)(C)O)c3)cnc2N)n1` [3-(6-amino-5-(3-methyl-1,2,4-oxadiazol-5-yl)pyridin-3-yl)-N-(2-hydroxy-2-methylpropyl)-5-(trifluoromethyl)benzenesulfonamide], the “activity in assay E” value on PI 3-kinase gamma is “inactive”.

For the molecule `Cc1ccc(S(=O)(=O)N[C@H]2CC[C@H](O)CC2)cc1-c1cnc(N)c(-c2cnn(C)c2)c1` [Example 4.1, trans 3-(6-Amino-5-(1-methyl-1H-pyrazol-4-yl)pyridin-3-yl)-N-(4-hydroxycyclohexyl)-4-methylbenzene-sulfonamide], the IC50 at PI 3-kinase alpha amounted to 0.28 µM; on PI 3-kinase beta, 1.6 µM; on Vps34, 6.6 µM; on PI 4-kinase beta, 3.9 µM; at mTOR, 9.5 µM.

For `Cc1cc(-c2cc(-c3cc(S(=O)(=O)N4CC(N(C)C)C4)ccc3C)cnc2N)on1` [Example 19.19, 5-(5-((3-(dimethylamino)azetidin-1-yl)sulfonyl)-2-methylphenyl)-3-(3-methylisoxazol-5-yl)pyridin-2-amine acetic acid salt], the IC50 on PI 3-kinase alpha was 3.1 µM; at Vps34, greater than 10 µM; at PI 4-kinase beta, 8.5 µM; in test [5], greater than 10 µM.
